Experiments:
MDA-MB-231 cells [1] = test: MTT assay, MDA-MB-231 cells; format: cell-based, human; settings: 72 h, read-out: Inhibitory Effect (IC50/μM) MDA-MB-231
Protocol: (§1) Liver cancer HepG2 cells, lung cancer A549 cells, breast cancer MCF-7 and MDA-MB-231 cells, human nasopharyngeal carcinoma CNE-1 cells, and human immortalized keratinocyte HaCaT cells were seeded in 96-well plates (5 × 10^3 cells per well) and cultured at 37 °C and 5% CO2 for 24 h. Cells were treated with different concentrations of the complexes (0, 1.5625, 3.125, 6.25, 12.5, 25, 50, and 100 µM) for 72 h. After adding 20 µL MTT (5 mg/mL) solution to each well, the cells were incubated for 4 h, and then 150 µL DMSO was added to each well. The optical density of each well was detected by a microplate reader at a wavelength of 570 nm. The cell survival rate (%) = A(experimental group)/A(control group) × 100%, and the IC50 value was analyzed and calculated based on the survival rate.

A549 cells = test: MTT assay, A549 cells; format: cell-based, human; settings: 72 h, read-out: Inhibitory Effect (IC50/μM) A549
Protocol: as §1

HepG2 cells = test: MTT assay, HepG2 cells; format: cell-based, human; settings: 72 h, read-out: Inhibitory Effect (IC50/μM) HepG2
Protocol: as §1

HaCaT cells = test: MTT assay, normal HaCaT keratinocytes; format: cell-based; settings: 72 h, normal human keratinocytes, read-out: Inhibitory Effect (IC50/μM) HaCaT
Protocol: as §1

MCF-7 cells = test: MTT assay, MCF-7 cells; format: cell-based, human; settings: 72 h, read-out: Inhibitory Effect (IC50/μM) MCF-7
Protocol: as §1

CNE-1 cells = test: MTT assay, CNE-1 cells; format: cell-based, human; settings: 72 h, read-out: Inhibitory Effect (IC50/μM) CNE-1
Protocol: as §1

c-myc G-quadruplex DNA [2] = test: FRET melting assay; format: binding, human; settings: free DNA Tm 59.5 °C
Protocol: Carboxy fluorescein (FAM) and 6-carboxytetramethyl rhodamine (TAMRA) double fluorescent-labeled c-myc G4 DNA (5′−FAM-TGAGGGTGGGAGGGGTAA-TAMRA−3′) were heated to 95 °C in Tris-HCl-KCl buffer (containing 10 mM Tris-HCl, 100 mM KCl, pH 7.4) for 5 min and slowly cooled to room temperature. To ds26, double-stranded DNA ([…]) is a competitive binder, research Λ/Δ−3 with c-myc G4 selectivity binding ability of DNA. A Bio-Radiq5 real-time PCR detection system was used to measure the fluorescence melting curve. Approximately 1 μM (5 μL) FPU22T was mixed with a series of 5 μL compound solutions of different concentrations, and 15 μLTris-HCl-KCl buffer was added to the PCR 8 tube to obtain a total volume of 25 μL. A real-time fluorescence quantitative PCR instrument was used, and incubation was performed at 30 °C for 30 min. The program temperature range was set to 30–95 °C at a temperature interval of 1 °C, and recording was performed after balancing for 30 s to detect the fluorescence value of FAM. The conditions of the reaction system were similar to those of the FRET melting point test except that different concentrations of ds26 were added.

MDA-MB-231 cells [3] = test: ICP detection of Ru content in cells; format: cell-based, human; settings: 24 h, control 0.4
Protocol: MDA-MB-231 cells were seeded in 10 cm cell culture dishes. After cell adherence, the cells were treated with the drug (0, 2.5, 5, and 10 μM) for 24 h. After 24 h, the cells were washed with PBS three times and collected by trypsin. The number of collected cells was counted by a cell counter. Then, the cells were digested in 1 mL HNO3 solution by microwave digestion at 120 °C for 3 min, and 1 mL of this solution was transferred to a 5 mL volumetric flask, diluted with distilled water to volume, and mixed. The Ru content of these solutions was analyzed by an ICP optical emission spectrometer (NCS, Plasma 2000). All measurements were repeated three times.

MDA-MB-231 cells [4] = test: EdU proliferation assay; format: cell-based, human; settings: control 50.2%
Protocol: The inhibitory effect of the chiral DPPZ-based Ru(II) complexes (Λ/Δ−1−3) was assessed against different human tumor cancer cells, such as breast cancer MCF-7, MDA-MB-231, lung cancer A549, liver carcinoma HepG2, nasopharyngeal carcinoma CNE-1, and human normal keratinocyte HaCaT cells, by MTT assay. […] Moreover, the inhibition of MDA-MB-231 cell proliferation by Δ−3 was detected by using an EdU (5-ethynyl-2′-deoxyuridine) staining kit, and EdU was incorporated into newly synthesized DNA in the sample cells. The red fluorescent azide is small enough to diffuse freely through native tissues and DNA, and it covalently cross-links to the EdU in a “click” chemistry reaction.

c-myc G-quadruplex DNA [5] = test: PCR-stop assay; format: biochemical, human; settings: Taq polymerase
Protocol: In this study, c-myc G4 DNA and its reverse complementary sequence c-myc rev were heated to 95 °C for 5 min, allowed to cool to room temperature, and incubated at 4 °C overnight. The system was supplemented with dNTPs and Taq polymerase for PCR amplification; heated at 95 °C for 3 min, 94 °C for 30 s, and 58 °C for 30 s, with an extension at 72 °C for 30 s (30 cycles); and analyzed by 15% nondenatured polyacrylamide gel electrophoresis and silver staining.

IC50 (MDA-MB-231 cells [1]) | IC50 (A549 cells) | IC50 (HepG2 cells) | IC50 (MCF-7 cells) | Ru content in cells (MDA-MB-231 cells [3]; 2.5 μM) | Ru content in cells (MDA-MB-231 cells [3]; 5 μM) | Ru content in cells (MDA-MB-231 cells [3]; 10 μM) | Molecule | IC50 (HaCaT cells) | IC50 (CNE-1 cells) | ΔTm (c-myc G-quadruplex DNA [2]; complex 0.5 μM) | ΔTm (c-myc G-quadruplex DNA [2]; complex 1.0 μM) | proliferation rate (EdU) (MDA-MB-231 cells [4]; 10 μM) | proliferation rate (EdU) (MDA-MB-231 cells [4]; 20 μM) | proliferation rate (EdU) (MDA-MB-231 cells [4]; 40 μM) | minimum concentration necessary for effective inhibition (PCR products) (c-myc G-quadruplex DNA [5])
94.5 ± 9.1 µM | 89.9 ± 11.3 µM | > 100 µM | > 100 µM |  |  |  | Δ-[Ru(bpy)2(BrDPPZ)](ClO4)2 [Δ−2] | > 100 µM | > 100 µM |  |  |  |  |  | 
> 100 µM | > 100 µM | > 100 µM | > 100 µM |  |  |  | Δ-[Ru(bpy)2(DPPZ)](ClO4)2 [Δ−1] | > 100 µM | > 100 µM |  |  |  |  |  | 
53.5 ± 1.7 µM | 55.4 ± 2.4 µM | 74.8 ± 2.4 µM |  | 0.56 ng/mL per 1 × 10^4 cells | 1.44 ng/mL per 1 × 10^4 cells | 2.47 ng/mL per 1 × 10^4 cells | Λ-[Ru(bpy)2(3-NBEDPPZ)](ClO4)2 [Λ−3] | > 100 µM | > 100 µM | approximately 2.2 °C | ~4.9 °C | 34.0% | 27.5% | 11.3% | 5 µM
92.1 ± 12.1 µM | 91.5 ± 10.8 µM | > 100 µM | > 100 µM |  |  |  | Λ-[Ru(bpy)2(BrDPPZ)](ClO4)2 [Λ−2] | > 100 µM | > 100 µM |  |  |  |  |  | 
60.8 ± 7.41 µM | > 100 µM | > 100 µM | > 100 µM |  |  |  | Λ-[Ru(bpy)2(DPPZ)](ClO4)2 [Λ−1] | > 100 µM | > 100 µM |  |  |  |  |  | 

Molecule | IC50 (MDA-MB-231 cells [1]) | IC50 (A549 cells) | IC50 (HepG2 cells) | IC50 (MCF-7 cells) | Ru content in cells (MDA-MB-231 cells [3]; 2.5 μM) | Ru content in cells (MDA-MB-231 cells [3]; 5 μM) | Ru content in cells (MDA-MB-231 cells [3]; 10 μM) | IC50 (HaCaT cells) | IC50 (CNE-1 cells) | ΔTm (c-myc G-quadruplex DNA [2]; complex 0.5 μM) | ΔTm (c-myc G-quadruplex DNA [2]; complex 1.0 μM) | proliferation rate (EdU) (MDA-MB-231 cells [4]; 10 μM) | proliferation rate (EdU) (MDA-MB-231 cells [4]; 20 μM) | proliferation rate (EdU) (MDA-MB-231 cells [4]; 40 μM) | minimum concentration necessary for effective inhibition (PCR products) (c-myc G-quadruplex DNA [5])
N.N.[Cl][Pt][Cl] [Cis-platin, cisplatin, reference compound] | 25.9 ± 1.9 µM | 9.9 ± 0.25 µM | 12.7 ± 0.7 µM | 14.27 ± 0.07 µM |  |  |  | 7.1 ± 0.5 µM |  |  |  |  |  |  | 

From article PMC9820592, “Novel Chiral Ru(II) Complexes as Potential c-myc G-quadruplex DNA Stabilizers Inducing DNA Damage to Suppress Triple-Negative Breast Cancer Progression” (International Journal of Molecular Sciences, 2022)
